Measurements from patent US6552080B1, “Fungicidal compounds having a fluorovinyl-or fluoropropenyl-oxyphenyloxime moiety and process for the preparation thereof” (Korea Research Institute of Chemical Technology, priority 1999, dated 2003).
Like-named read-outs stand apart in the source and are kept apart here.

Legend:
[1] = tested on: Pyricularia oryzae Carvara KA301; type: in vivo
[2] = tested on: Botrytis cinerae; experiment: Fungicidal activity against Cucumber Gray Mold Rot (CGM) disease; type: in vivo; settings: 50 ppm
[3] = tested on: Phytophthora infestans; type: in vivo
[4] = tested on: Puccinia recondita; experiment: Fungicidal activity against Wheat Leaf Rust (WLR) disease; type: in vivo
[5] = tested on: Erysiphae graminis; experiment: Fungicidal activity against Barley Powdery Mildew (BPM) disease; type: in vivo
[6] = tested on: Rhizoctonia solani AG-1; experiment: Fungicidal activity against Rice Sheath Blight (RSB) disease

Structure (SMILES)	Fungicidal Activities RCV (C.V.) ([1]; 2 ppm) [%]	Fungicidal Activities RCV (C.V.) ([1]; 50 ppm) [%]	Fungicidal Activities CGM (C.V.) [2] [%]	Fungicidal Activities TLB (C.V.) ([3]; 2 ppm) [%]	Fungicidal Activities TLB (C.V.) ([3]; 50 ppm) [%]	Fungicidal Activities WLR (C.V.) ([4]; 2 ppm) [%]	Fungicidal Activities WLR (C.V.) ([4]; 50 ppm) [%]	Fungicidal Activities BPM (C.V.) ([5]; 2 ppm) [%]	Fungicidal Activities BPM (C.V.) ([5]; 50 ppm) [%]	Fungicidal Activities RSB (C.V.) ([6]; 2 ppm) [%]	Fungicidal Activities RSB (C.V.) ([6]; 50 ppm) [%]	Fungicidal Activities WLR (C.V.) ([4]; 10 ppm) [%]	Fungicidal Activities BPM (C.V.) ([5]; 10 ppm) [%]
CON=C(C(=O)OC)c1ccccc1CON=C(C)c1cccc(OC(F)=C(c2ccc3c(c2)OCO3)C(F)(F)F)c1 [Compound 190]	66	93	0	0	0	93	100	91	100	15	65		
CNC(=O)C(=NOC)c1ccccc1CON=C(C)c1cccc(OC(F)=C(c2ccccc2)C(F)(F)F)c1 [Compound 191]	100	100	68	0	60	99	100	100	100	35	75		
CNC(=O)C(=NOC)c1ccccc1CON=C(C)c1cccc(OC(F)=C(c2ccc(C)cc2)C(F)(F)F)c1 [Compound 192]	100	100	75	37	40	98	100	100	100	40	100		
CNC(=O)C(=NOC)c1ccccc1CON=C(C)c1cccc(OC(F)=C(c2ccc(C)c(C)c2)C(F)(F)F)c1 [Compound 193]	93	96	75	12	40	98	100	90	100	30	80		
CNC(=O)C(=NOC)c1ccccc1CON=C(C)c1cccc(OC(F)=C(c2cc(C)cc(C)c2)C(F)(F)F)c1 [Compound 194]	95	100	16		0	20	98	0	98		64		
CCc1ccc(C(=C(F)Oc2cccc(C(C)=NOCc3ccccc3C(=NOC)C(=O)NC)c2)C(F)(F)F)cc1 [Compound 195]	100	96	82	25	50	98	100	99	100	25	80		
CNC(=O)C(=NOC)c1ccccc1CON=C(C)c1cccc(OC(F)=C(c2cccc(OC)c2)C(F)(F)F)c1 [Compound 197]	100	100	85	0	50	98	100	100	100	35	80		
CNC(=O)C(=NOC)c1ccccc1CON=C(C)c1cccc(OC(F)=C(c2ccc(OC)cc2)C(F)(F)F)c1 [Compound 198]	95	100	16		0	53	100	41	100		58		
CNC(=O)C(=NOC)c1ccccc1CON=C(C)c1cccc(OC(F)=C(c2ccc(F)cc2)C(F)(F)F)c1 [Compound 199]	100	100	80	12	60	99	100	100	100	35	100		
CNC(=O)C(=NOC)c1ccccc1CON=C(C)c1cccc(OC(F)=C(c2cccc(C(F)(F)F)c2)C(F)(F)F)c1 [Compound 200]	95	96	81	12	50	93	100	99	100	15	85		
CNC(=O)C(=NOC)c1ccccc1CON=C(C)c1cccc(OC(F)=C(c2cccc(Cl)c2)C(F)(F)F)c1 [Compound 201]	98	97	85	25	50	97	100	100	100	20	85		
CON=C(C(=O)OC)c1ccccc1CON=C(c1cccc(OC(F)=C(c2ccccc2)C(F)(F)F)c1)C(F)(F)F [Compound 221]		41	0		0		100		100		30	91	96
